This is an account of results in paper PMC9445081, “Structural basis for recognition of N-formyl peptides as pathogen-associated molecular patterns” (Nature Communications, 2022).

As usually defined, the EC50 is the concentration giving half of the maximal effect.

Where a chain is given by its changes, count along the chain named. Several values for one entry are separate records, joined by “and”; a condition that tells them apart may be missing. Equal values may be shown once. Read-outs that look alike come from different tables or passages of the source. Where a SMILES comes first, the peptide text is derived from it. Where no end group is shown, it is not given here. The star is where a group is joined. For = O=C*

Experiment [1] has as its target T1, WT FPR1 expressed in HeLa cells (human, UniProt P21462 1-350).
T1 sequence (looked up): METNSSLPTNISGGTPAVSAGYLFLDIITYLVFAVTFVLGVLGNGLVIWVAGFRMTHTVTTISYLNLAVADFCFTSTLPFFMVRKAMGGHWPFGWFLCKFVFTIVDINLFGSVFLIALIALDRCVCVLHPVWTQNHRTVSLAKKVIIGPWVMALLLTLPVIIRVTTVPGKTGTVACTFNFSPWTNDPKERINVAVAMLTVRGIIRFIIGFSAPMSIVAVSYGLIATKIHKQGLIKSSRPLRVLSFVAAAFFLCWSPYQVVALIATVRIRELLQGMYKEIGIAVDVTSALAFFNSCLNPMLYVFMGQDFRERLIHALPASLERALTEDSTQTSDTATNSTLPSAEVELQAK

The target in experiment [2] is T2, FPR1 R201A (Homo sapiens, UniProt P21462, R201A).
T2 construct: expressed in transfected cells; host or cells: HeLa cells, transient, pcDNA3.1(+)
T2 sequence (P21462 1-350 R201A): T1 sequence (looked up) with R201A
Kind of experiment: cAMP inhibition assay, FPR1 R201A. In kind it is cell-based. An excerpt:
(§1) FPR1 cDNA in the pcDNA3.1(+) vector (Invitrogen) was used as a template for gene manipulation. The mutations of FPR1 were introduced in the receptor through overlap extension PCR with elaborately designed primers (GENEWIZ, Suzhou, China). The sequences of the primers were listed in Supplementary Table 2. Two fragments of FPR1 (separated at mutated positions) were assembled into pre-cut pcDNA3.1(+) vectors with the ClonExpress Ultra One Step Cloning Kit (Vazyme Biotech, C115). Plasmids with FPR1 mutations were confirmed by DNA sequencing (GENEWIZ).
(§2) For functional studies, FPR1 and its mutants were expressed in HeLa cells as above. The cells were resuspended in HBSS buffer plus 5 mM HEPES, 0.1% BSA (w/v) and 0.5 mM 3-isobutyl-1-methylxanthine and seeded into 384-well plates. […] AG-14 was synthesized by Sungening Biotechnology (Shenzhen, China). […] Intracellular cAMP levels were measured with the LANCE Ultra cAMP kit (PerkinElmer, TRF0263) following the manufacturer’s instructions. […] Intracellular cAMP levels were calculated according to the TR-FRET signals of the samples and cAMP standards.
(§3) The data were analyzed with Prism 6.0 (GraphPad, San Diego, CA). […] For cell surface expression, data points were presented as the percentages (mean ± SEM) of the flow cytometry fluorescence signals of WT FPR1. […]

Another experiment deals with T3, FPR1 WT (Homo sapiens, UniProt P21462).
T3 construct: expressed in transfected cells; host or cells: HeLa cells, transient, pcDNA3.1(+)
T3 sequence (P21462 1-350): T1 sequence (looked up)
Kind of experiment: cAMP inhibition assay, WT FPR1. In kind it is cell-based.
Description: as §1, §2, §3

The target of experiment [3] is T4, FPR1 R205A (Homo sapiens, UniProt P21462, R205A).
T4 construct: expressed in transfected cells; host or cells: HeLa cells, transient, pcDNA3.1(+)
T4 sequence (P21462 1-350 R205A): T1 sequence (looked up) with R205A
Kind of experiment: cAMP inhibition assay, FPR1 R205A. The format is cell-based. Details: key to cAMP response, source data of Fig. 5c: % of maximal cAMP level for each construct. To be noted: for cAMP response, source data of Fig. 5c: FPR1 R205A, single replicate readings.
Description: as §1
as §2, with “China). Different concentrations of the ligands were prepared plus a fixed dose of forskolin with the buffer above.” for “China).”
(§4) The data were analyzed with Prism 6.0 (GraphPad, San Diego, CA). For dose-response analysis, the curves were plotted with the log[agonist] vs. response equation (three parameters) in the software. Data points were presented as the percentages (mean ± SEM) of the maximal cAMP level for each construct, from at least three independent experiments, as indicated in figure legends. The pEC50 values were the negative logarithm of the EC50 values, which were obtained from the dose-response curves. For cell surface expression, data points were presented as the percentages (mean ± SEM) of the flow cytometry fluorescence signals of WT FPR1. For statistical comparison, a p-value of 0.05 or lower is considered statistically significant.

The next experiment concerns the target T5, FPR1 R84A (Homo sapiens, UniProt P21462, R84A).
T5 construct: expressed in transfected cells; host or cells: HeLa cells, transient, pcDNA3.1(+)
T5 sequence (P21462 1-350 R84A): T1 sequence (looked up) with R84A
Kind of experiment: cAMP inhibition assay, FPR1 R84A. The format is cell-based. Details: key to cAMP response, source data of Fig. 5c: % of maximal cAMP level for each construct.
Description: as §1
as §2, with “China). Different concentrations of the ligands were prepared plus a fixed dose of forskolin with the buffer above.” for “China).”
as §4

The target of a further experiment is T6, FPR1 F291A (Homo sapiens, UniProt P21462, F291A).
T6 construct: expressed in transfected cells; host or cells: HeLa cells, transient, pcDNA3.1(+)
T6 sequence (P21462 1-350 F291A): T1 sequence (looked up) with F291A
Kind of experiment: cAMP inhibition assay, FPR1 F291A. In kind it is cell-based. To be noted: FPR1 F291A, single replicate readings.
Description: as §1
as §2, with “China). Different concentrations of the ligands were prepared plus a fixed dose of forskolin with the buffer above.” for “China).”
as §4

In experiment [4] the target is T7, FPR1 R201A (human, UniProt P21462 1-350, R201A).
T7 sequence (looked up): T1 sequence (looked up) with R201A
In words: cell-based or functional assay.

In experiment [5] the target is T8, FPR1 R205A (human, UniProt P21462 1-350, R205A).
T8 sequence (looked up): T1 sequence (looked up) with R205A
In words: cell-based or functional assay.

The target of experiment [6] is T1, WT FPR1 expressed in HeLa cells. In words: cell-based or functional assay.

WKYMVm (peptide) came in with a pEC50 of inhibition of forskolin-elevated cAMP, transfected HeLa cells in experiment [1] of 8.4.

On to `CC[C@H](C)[C@H](NC(=O)[C@H](CCSC)NC=O)C(=O)N[C@@H](Cc1ccccc1)C(=O)N[C@@H](CC(C)C)C(=O)O` [fMIFL, fMet-Ile-Phe-Leu] (For-MIFL-OH), for which the EC50 is 6.31 nM on FPR1 R201A [2], 0.0631 nM at FPR1 WT and 2.51 nM at FPR1 R205A [3].

For `COc1cc(C=NNC(=O)c2ccc3c(c2)OCO3)ccc1OCc1ccccc1` [Fig. 5c], the “cAMP response, source data of Fig. 5c” value is 37.2 and 21.4 and -4.8 and 34.9 and 32.8 and 41.9 on FPR1 R84A (Log[M] -4.3, single replicate readings); 14.6 and -24.6 and 16.2 and 33.5 and 20.2 and 31.4 at FPR1 R84A (Log[M] -5.0, single replicate readings); 49.5 and 79.5 and 66.2 and 55.1 and 52.2 and 52.7 on FPR1 R84A (Log[M] -5.7, single replicate readings); 79.9 and 58.8 and 61.6 and 91.8 and 112.7 and 81.8 at FPR1 R84A (Log[M] -6.4, single replicate readings); 135.9 and 91.7 and 83.9 and 115.6 and 133.7 and 94.7 at FPR1 R84A (Log[M] -7.1, single replicate readings); 106.7 and 82.2 and 108.6 and 111.9 and 96.0 and 84.6 on FPR1 R84A (Log[M] -7.8, single replicate readings). The “cAMP response, source data of Fig. 5c” value at FPR1 R84A (Log[M] -8.5, single replicate readings) is 91.1 and 94.4 and 114.8 and 80.2 and 111.9 and 117.6; at FPR1 F291A (Log[M] -4.3), 33.9 and 34.1 and 26.7 and 28.4 and 24.2 and 31.1; on FPR1 F291A (Log[M] -5.0), 45.9 and 38.0 and 28.1 and 39.1 and 42.3 and 29.9; on FPR1 F291A (Log[M] -5.7) it was 66.9 and 58.1 and 74.7 and 72.6; at FPR1 R205A [3] (Log[M] -4.3) it was 31.8 and 48.0 and 38.0 and 26.4 and 16.2 and 78.8; on FPR1 R205A [3] (Log[M] -5.0), 58.1 and 43.9 and 27.8 and 37.0 and 34.2 and 45.7. The “cAMP response, source data of Fig. 5c” value at FPR1 R205A [3] (Log[M] -5.7) was 35.5 and 68.3 and 63.8 and 45.2 and 48.0 and 85.4; on FPR1 R205A [3] (Log[M] -6.4), 69.2 and 71.8 and 39.5 and 113.9 and 150.2 and 118.4; on FPR1 R205A [3] (Log[M] -7.1) it was 78.9 and 109.8 and 60.3 and 84.0 and 71.2 and 109.6; on FPR1 R205A [3] (Log[M] -7.8), 116.3 and 101.9 and 108.0 and 144.2 and 102.7 and 124.3; at FPR1 R205A [3] (Log[M] -8.5), 91.9 and 89.9 and 58.5 and 89.3 and 105.1 and 67.8.

B1: fMet-Ile-Phe-Leu (fMIFL) (peptide)
peptide: For-MIFL
Consider B1, for which the “pEC50 of inhibition of forskolin-elevated cAMP, transfected HeLa cells” value was 8.2 with FPR1 R201A [4], 8.6 with FPR1 R205A [5] and 10.2 in experiment [6].
